For assay [1], the target named is T1, MAP/microtubule affinity-regulating kinase 4 (Mus musculus, UniProt Q8CIP4).
T1 sequence (Q8CIP4 whole entry): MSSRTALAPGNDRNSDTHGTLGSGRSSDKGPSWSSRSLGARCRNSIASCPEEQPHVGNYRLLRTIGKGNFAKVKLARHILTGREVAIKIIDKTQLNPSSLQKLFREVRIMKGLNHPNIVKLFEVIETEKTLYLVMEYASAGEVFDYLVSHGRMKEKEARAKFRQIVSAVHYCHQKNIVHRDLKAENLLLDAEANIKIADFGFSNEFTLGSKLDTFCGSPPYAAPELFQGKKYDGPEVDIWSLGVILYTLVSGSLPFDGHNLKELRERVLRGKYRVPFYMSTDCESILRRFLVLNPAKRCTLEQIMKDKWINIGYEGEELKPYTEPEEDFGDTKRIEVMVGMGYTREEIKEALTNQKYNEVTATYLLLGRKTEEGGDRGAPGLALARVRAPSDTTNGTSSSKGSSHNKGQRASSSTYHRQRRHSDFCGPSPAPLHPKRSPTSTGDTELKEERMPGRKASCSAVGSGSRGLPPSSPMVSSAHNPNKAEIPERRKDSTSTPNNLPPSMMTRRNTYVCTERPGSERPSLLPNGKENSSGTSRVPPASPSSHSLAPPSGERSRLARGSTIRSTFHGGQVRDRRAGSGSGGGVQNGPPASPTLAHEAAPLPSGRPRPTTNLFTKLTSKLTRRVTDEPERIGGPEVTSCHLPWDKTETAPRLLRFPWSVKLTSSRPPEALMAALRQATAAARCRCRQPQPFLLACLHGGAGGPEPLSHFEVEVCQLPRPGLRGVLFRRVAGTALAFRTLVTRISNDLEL
Nature of the assay: Inhibition of MARK4 in mouse cortical neurons assessed as inhibition of okadaic acid-induced tau phosphorylation at S262 residue preincubated for 15 mins followed okadaic acid challenge for 1.5 hrs by immunostaining method.

Assay [2] concerns the target T2, Activin receptor type-1B (Homo sapiens, UniProt P36896).
T2 sequence (P36896 whole entry): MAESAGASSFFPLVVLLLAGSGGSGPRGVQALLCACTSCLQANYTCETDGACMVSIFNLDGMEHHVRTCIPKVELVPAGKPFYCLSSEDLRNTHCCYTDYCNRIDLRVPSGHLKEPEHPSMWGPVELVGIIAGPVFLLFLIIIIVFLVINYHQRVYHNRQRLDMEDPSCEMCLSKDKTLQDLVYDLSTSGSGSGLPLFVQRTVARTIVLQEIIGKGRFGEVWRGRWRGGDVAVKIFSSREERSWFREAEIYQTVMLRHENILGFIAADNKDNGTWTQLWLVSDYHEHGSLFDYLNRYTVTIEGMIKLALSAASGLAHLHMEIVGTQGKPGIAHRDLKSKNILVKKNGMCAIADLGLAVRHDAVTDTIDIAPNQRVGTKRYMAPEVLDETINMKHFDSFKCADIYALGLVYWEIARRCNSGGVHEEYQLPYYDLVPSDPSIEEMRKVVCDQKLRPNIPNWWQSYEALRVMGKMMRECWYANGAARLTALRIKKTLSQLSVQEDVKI
The assay is described as follows: Inhibition of recombinant human GST-tagged ALK4 catalytic domain expressed in baculovirus expression system by Z'-LYTE assay.

The target of assay [3] is AMP-activated protein kinase (AMPK) alpha-1/beta-1/gamma-1 (Homo sapiens, UniProt P54619+Q13131+Q9Y478). The assay is described as follows: Inhibition of full-length recombinant human GST and His-tagged AMPK alpha1/beta1/gamma1 expressed in baculovirus expression system by LanthaScreen assay.
For assay [4], the target named is Mitogen-activated protein kinase 1 (Homo sapiens, UniProt P28482). The assay is described as follows: Inhibition of full-length recombinant human GST-tagged MAPK1 expressed in Escherichia coli by Z'-LYTE assay.
Assay [5] addresses Mitogen-activated protein kinase 14 (Homo sapiens, UniProt Q16539). The assay is described as follows: Inhibition of full-length recombinant human GST-tagged MAPK14 alpha expressed in Escherichia coli by Z'-LYTE assay.
The target in assay [6] is T3, NUAK family SNF1-like kinase 1 (Homo sapiens, UniProt O60285).
T3 sequence (O60285 whole entry): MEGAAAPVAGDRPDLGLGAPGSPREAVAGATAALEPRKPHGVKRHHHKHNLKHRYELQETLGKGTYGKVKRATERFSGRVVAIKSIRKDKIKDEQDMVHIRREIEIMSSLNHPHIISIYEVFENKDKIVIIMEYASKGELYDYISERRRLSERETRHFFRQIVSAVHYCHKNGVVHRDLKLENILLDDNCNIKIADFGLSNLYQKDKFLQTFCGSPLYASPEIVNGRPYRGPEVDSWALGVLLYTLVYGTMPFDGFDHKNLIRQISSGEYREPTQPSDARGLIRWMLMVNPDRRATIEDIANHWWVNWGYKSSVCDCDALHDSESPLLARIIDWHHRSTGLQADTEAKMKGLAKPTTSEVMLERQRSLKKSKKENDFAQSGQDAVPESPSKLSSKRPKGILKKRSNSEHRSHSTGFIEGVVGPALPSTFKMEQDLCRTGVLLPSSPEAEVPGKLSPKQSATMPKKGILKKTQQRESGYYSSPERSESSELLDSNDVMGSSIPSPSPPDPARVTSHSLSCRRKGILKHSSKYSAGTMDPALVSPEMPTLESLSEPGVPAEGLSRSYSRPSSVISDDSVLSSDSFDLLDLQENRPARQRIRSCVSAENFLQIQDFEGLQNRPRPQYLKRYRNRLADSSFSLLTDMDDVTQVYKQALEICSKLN
Nature of the assay: Inhibition of full-length recombinant human His-tagged NUAK1 expressed in baculovirus expression system by Adapta assay.

The structures appear in SMILES notation. A value given as a limit tells only on which side of the number the result lay.

Mitogen-activated protein kinase 14, sequence (Q16539 whole entry): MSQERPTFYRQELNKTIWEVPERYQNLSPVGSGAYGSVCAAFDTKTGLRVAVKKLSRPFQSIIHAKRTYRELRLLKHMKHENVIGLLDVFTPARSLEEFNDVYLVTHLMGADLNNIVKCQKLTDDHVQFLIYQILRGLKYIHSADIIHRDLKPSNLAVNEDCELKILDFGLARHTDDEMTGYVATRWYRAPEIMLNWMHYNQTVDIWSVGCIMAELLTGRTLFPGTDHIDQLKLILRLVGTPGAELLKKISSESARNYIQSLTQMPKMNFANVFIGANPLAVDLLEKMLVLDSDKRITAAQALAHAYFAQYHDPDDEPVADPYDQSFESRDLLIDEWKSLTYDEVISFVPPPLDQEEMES
Mitogen-activated protein kinase 1, sequence (P28482 whole entry): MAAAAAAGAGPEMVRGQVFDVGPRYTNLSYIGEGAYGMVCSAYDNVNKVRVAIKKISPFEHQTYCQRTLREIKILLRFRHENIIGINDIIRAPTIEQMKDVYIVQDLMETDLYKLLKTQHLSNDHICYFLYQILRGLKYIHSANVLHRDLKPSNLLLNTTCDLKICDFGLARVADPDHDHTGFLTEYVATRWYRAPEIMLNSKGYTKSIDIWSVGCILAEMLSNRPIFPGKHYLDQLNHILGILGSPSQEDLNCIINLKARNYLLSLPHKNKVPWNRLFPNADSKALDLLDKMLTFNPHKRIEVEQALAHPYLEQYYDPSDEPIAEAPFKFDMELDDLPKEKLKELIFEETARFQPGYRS
AMP-activated protein kinase (AMPK) alpha-1/beta-1/gamma-1, sequence (P54619 whole entry): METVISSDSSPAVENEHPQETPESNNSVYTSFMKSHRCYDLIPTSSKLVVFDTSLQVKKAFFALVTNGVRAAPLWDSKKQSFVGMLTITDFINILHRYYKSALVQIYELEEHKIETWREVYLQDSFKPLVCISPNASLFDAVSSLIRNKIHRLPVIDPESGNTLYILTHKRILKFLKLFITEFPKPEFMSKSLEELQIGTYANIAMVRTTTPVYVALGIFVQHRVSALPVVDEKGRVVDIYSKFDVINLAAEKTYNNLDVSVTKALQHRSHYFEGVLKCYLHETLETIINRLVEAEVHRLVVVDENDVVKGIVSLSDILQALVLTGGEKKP
AMP-activated protein kinase (AMPK) alpha-1/beta-1/gamma-1, sequence (Q9Y478 whole entry): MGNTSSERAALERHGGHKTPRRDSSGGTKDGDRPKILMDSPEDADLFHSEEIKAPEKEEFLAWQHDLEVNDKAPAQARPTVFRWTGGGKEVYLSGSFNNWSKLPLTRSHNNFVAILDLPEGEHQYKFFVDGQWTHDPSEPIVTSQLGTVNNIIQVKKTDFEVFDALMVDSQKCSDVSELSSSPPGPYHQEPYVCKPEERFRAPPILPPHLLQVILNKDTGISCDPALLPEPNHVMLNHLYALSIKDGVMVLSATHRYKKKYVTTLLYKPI
AMP-activated protein kinase (AMPK) alpha-1/beta-1/gamma-1, sequence (Q13131 whole entry): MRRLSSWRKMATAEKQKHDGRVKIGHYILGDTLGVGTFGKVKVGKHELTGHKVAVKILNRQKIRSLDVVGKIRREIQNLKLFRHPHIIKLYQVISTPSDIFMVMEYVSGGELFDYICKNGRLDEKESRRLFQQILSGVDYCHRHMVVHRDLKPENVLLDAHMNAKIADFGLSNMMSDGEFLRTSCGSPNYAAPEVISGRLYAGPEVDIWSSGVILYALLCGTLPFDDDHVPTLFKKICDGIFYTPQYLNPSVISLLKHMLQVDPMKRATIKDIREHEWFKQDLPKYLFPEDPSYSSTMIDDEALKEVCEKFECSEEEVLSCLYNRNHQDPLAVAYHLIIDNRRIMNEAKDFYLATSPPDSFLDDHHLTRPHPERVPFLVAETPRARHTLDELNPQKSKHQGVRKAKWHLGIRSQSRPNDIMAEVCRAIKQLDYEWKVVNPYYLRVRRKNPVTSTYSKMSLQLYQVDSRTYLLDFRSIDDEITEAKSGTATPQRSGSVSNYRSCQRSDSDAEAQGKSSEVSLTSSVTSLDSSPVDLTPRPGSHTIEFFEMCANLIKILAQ

Turning to `Cn1cc(-c2cnc3c(-c4csc(C(=O)NCC(F)(F)F)c4)cnn3c2)cn1`, the 50% inhibitory concentration (IC50) in assay [1] was 0.06 µM; in assay [2], 0.17 µM; in assay [3] it was 0.026 µM; in assay [4], 18 µM; in assay [5], 36 µM; in assay [6], 0.019 µM.
For the compound `Cc1sc(C(=O)N[C@@H]2[C@H](N)CCCC2(F)F)cc1-c1cnn2cc(Cl)cnc12`, the IC50 in assay [1] is 0.28 µM; in assay [2], more than 100 µM; in assay [3], 0.053 µM; in assay [4] it was 1.2 µM; in assay [5] it was more than 100 µM; in assay [6], 0.2 µM.
As for `O=C(NCC(F)(F)F)c1cc(-c2cnn3cc(-c4ccc(OCCN5CCCCC5)cc4)cnc23)cs1`, the IC50 in assay [1] was 0.05 µM; in assay [2], 0.2 µM; in assay [3] it was less than 0.01 µM; in assay [4], 12 µM; in assay [5], 1.2 µM; in assay [6], 0.015 µM.
Consider `Cn1cc(-c2cnc3c(-c4csc(C(=O)N[C@@H]5CCCC[C@@H]5N)c4)cnn3c2)cn1` (racemic), for which the half-maximal inhibitory concentration (IC50) in assay [1] was 0.002 µM; in assay [2], 0.73 µM; in assay [3] it was 0.0046 µM; in assay [4], 0.23 µM; in assay [5] it was 1.4 µM; in assay [6], 0.0042 µM.
